Laboratory results as given in patent publication US20250282746A1, “HALOGEN-SUBSTITUTED ISOINDOLINE COMPOUND AND USE THEREOF” (CHENGDU FENDI PHARMACEUTICAL CO., LTD., priority 2022, published 2025).
Where two headings read alike, the source gives them in different places.

Experiments:
[1] = tested on: MV-4-11 cells; assay: Antiproliferative activity against MV-4-11 cells (CellTiter-Glo, 72 h); assay type: cell-based; details: Homo sapiens
Method: MV411 cells in the logarithmic growth phase were diluted in a medium (RPMI+10% FBS) and plated at 5,000 cells/well in 96-well whole black plates (WHB) with 50 μL/well. After plating, the plates were incubated in an incubator at 5% CO2 and 37° C. for 24 h before the compounds were added. The compounds were prepared into a 10 mM stock solution in DMSO and diluted in a culture medium to the desired concentrations (a final DMSO concentration of 0.2%). […] The plates were incubated at 5% CO2 and 37° C. for 72 h. After the incubation was complete, the plates were equilibrated at room temperature for 30 min. CellTiter-Glo® Reagent (Promega G7573) was added at 100 μL/well. The plates were shaken for 12 min on a microplate shaker. The luminescence value was measured at room temperature by the GloMax navigator (Promega GM2010).

[2] = molecular target: T1, GSPT1 protein (Homo sapiens, UniProt P15170); assay: Degradation of GSPT1 protein in NB-4 cells (Western blot); assay type: cell-based; details: for inhibition at 1 µM: read-out: GSPT1 degradation
T1 construct: The whole cell lysate was prepared using a RIPA lysis buffer; endogenous in cells; host or cells: NB-4 cells
Method: 150 μL of DMSO and the compounds (1 μM) were added, and the mixture was incubated in an incubator at 5% CO2 and 37° C. for 6 h. The cells were centrifuged, and the culture medium was discarded. PBS was added for washing and then discarded. The whole cell lysate was prepared using a RIPA lysis buffer containing a protease inhibitor cocktail and a phosphatase inhibitor, and incubated on ice for 30 min. The mixture was centrifuged, and the cell debris was discarded. The whole cell lysate supernatant was collected and transferred to a fresh EP tube. Samples were prepared using a loading buffer after a BCA protein assay. The samples were incubated in a metal bath at 100° C. for 10 min.
The samples were electrophoretically separated from proteins on a 4-20% precast gel (SDS-PAGE gel), transferred to a PVDF membrane, blocked with 5% NFDM/TBST for 1 h at room temperature, co-incubated overnight at 4° C. with the primary antibody, and co-incubated for 2 h at room temperature with the secondary antibody on the next day. The signals were detected on the […]™ imaging system.

[3] = MV4-11, MV-4-11 cells, 72 h, read-out: Antiproliferative activity IC50

T1 sequence (P15170 whole entry): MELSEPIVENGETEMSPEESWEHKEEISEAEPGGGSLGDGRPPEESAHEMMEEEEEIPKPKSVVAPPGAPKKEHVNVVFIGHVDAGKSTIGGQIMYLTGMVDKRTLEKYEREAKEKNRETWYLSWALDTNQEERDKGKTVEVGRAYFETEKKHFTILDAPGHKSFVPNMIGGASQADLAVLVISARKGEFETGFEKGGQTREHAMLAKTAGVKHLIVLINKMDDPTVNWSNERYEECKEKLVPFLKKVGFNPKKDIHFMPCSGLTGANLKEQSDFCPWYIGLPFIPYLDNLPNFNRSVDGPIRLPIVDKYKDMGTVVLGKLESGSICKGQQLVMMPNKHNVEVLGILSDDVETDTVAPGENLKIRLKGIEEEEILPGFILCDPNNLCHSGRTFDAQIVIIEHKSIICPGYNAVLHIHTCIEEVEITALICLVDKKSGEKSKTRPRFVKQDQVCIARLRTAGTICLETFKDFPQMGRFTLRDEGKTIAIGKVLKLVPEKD

SMILES: O=C(CCc1cccc2ccccc12)NCc1ccc2c(c1F)CN(C1CCC(=O)NC1=O)C2=O (stereo not drawn) [FDAB-138]
- IC50 [1, 3]: < 1 nM
- inhibition at 1 µM ([2]; NB-4 cells, compound 1 μM, 6 h): > 80%

SMILES: O=C(CCCc1ccc(I)cc1)NCc1ccc2c(c1F)CN(C1CCC(=O)NC1=O)C2=O (stereo not drawn) [FDAB-139]
- IC50 [1, 3]: 1 to 10 nM
- inhibition at 1 µM ([2]; NB-4 cells, compound 1 μM, 6 h): > 80%

SMILES: O=C1CCC(N2Cc3c(ccc(CNC(=O)C4(c5ccc(Br)cc5F)CC4)c3F)C2=O)C(=O)N1 (stereo not drawn) [FDAB-141]
- IC50 [1, 3]: > 1000 nM
- inhibition at 1 µM ([2]; NB-4 cells, compound 1 μM, 6 h): < 25%

SMILES: CCCOc1ccc(/C=C/C(=O)NCc2ccc3c(c2F)CN(C2CCC(=O)NC2=O)C3=O)cc1 (stereo not drawn) [FDAB-143]
- IC50 [1, 3]: < 1 nM
- inhibition at 1 µM ([2]; NB-4 cells, compound 1 μM, 6 h): > 80%

SMILES: O=C(C#Cc1ccc(Cl)cc1)NCc1ccc2c(c1F)CN(C1CCC(=O)NC1=O)C2=O (stereo not drawn) [FDAB-145]
- IC50 [1, 3]: < 1 nM
- inhibition at 1 µM ([2]; NB-4 cells, compound 1 μM, 6 h): > 80%

SMILES: O=C(C#Cc1cccc(O)c1)NCc1ccc2c(c1F)CN(C1CCC(=O)NC1=O)C2=O (stereo not drawn) [FDAB-146]
- IC50 [1, 3]: < 1 nM
- inhibition at 1 µM ([2]; NB-4 cells, compound 1 μM, 6 h): > 80%

SMILES: O=C(C#Cc1ccccn1)NCc1ccc2c(c1F)CN(C1CCC(=O)NC1=O)C2=O (stereo not drawn) [FDAB-148]
- IC50 [1, 3]: 1 to 10 nM
- inhibition at 1 µM ([2]; NB-4 cells, compound 1 μM, 6 h): > 80%

SMILES: N#Cc1ccc(NCC(=O)NCc2ccc3c(c2F)CN(C2CCC(=O)NC2=O)C3=O)cc1 (stereo not drawn) [FDAB-149]
- IC50 [1, 3]: > 1000 nM
- inhibition at 1 µM ([2]; NB-4 cells, compound 1 μM, 6 h): < 25%

SMILES: O=C(COc1c(Cl)cc(Cl)cc1Cl)NCc1ccc2c(c1F)CN(C1CCC(=O)NC1=O)C2=O (stereo not drawn) [FDAB-152]
- IC50 [1, 3]: < 1 nM
- inhibition at 1 µM ([2]; NB-4 cells, compound 1 μM, 6 h): > 80%

SMILES: O=C(CCOc1ccccc1)NCc1ccc2c(c1F)CN(C1CCC(=O)NC1=O)C2=O (stereo not drawn) [FDAB-154]
- IC50 [1, 3]: 1 to 10 nM
- inhibition at 1 µM ([2]; NB-4 cells, compound 1 μM, 6 h): > 80%

SMILES: O=C(CSc1ccncc1)NCc1ccc2c(c1F)CN(C1CCC(=O)NC1=O)C2=O (stereo not drawn) [FDAB-155]
- IC50 [1, 3]: > 1000 nM
- inhibition at 1 µM ([2]; NB-4 cells, compound 1 μM, 6 h): < 25%

SMILES: O=C(CCCCN1CCCCC1)NCc1ccc2c(c1F)CN(C1CCC(=O)NC1=O)C2=O (stereo not drawn) [FDAB-159]
- IC50 [1, 3]: > 1000 nM
- inhibition at 1 µM ([2]; NB-4 cells, compound 1 μM, 6 h): < 25%

SMILES: O=C(CCP(c1ccccc1)c1ccccc1)NCc1ccc2c(c1F)CN(C1CCC(=O)NC1=O)C2=O (stereo not drawn) [FDAB-160]
- IC50 [1, 3]: < 1 nM
- inhibition at 1 µM ([2]; NB-4 cells, compound 1 μM, 6 h): > 80%

SMILES: O=C(CCSC(=S)SCc1ccccc1)NCc1ccc2c(c1F)CN(C1CCC(=O)NC1=O)C2=O (stereo not drawn) [FDAB-161]
- IC50 [1, 3]: < 1 nM
- inhibition at 1 µM ([2]; NB-4 cells, compound 1 μM, 6 h): > 80%

SMILES: COc1cc(C)c(/C=C/C(C)=C/C=C/C(C)=C/C(=O)NCc2ccc3c(c2F)CN(C2CCC(=O)NC2=O)C3=O)c(C)c1C (stereo not drawn) [FDAB-162]
- IC50 [1, 3]: < 1 nM
- inhibition at 1 µM ([2]; NB-4 cells, compound 1 μM, 6 h): > 80%

SMILES: CCCCCCCCCCCCSC(=S)SC(C)(C)C(=O)NCc1ccc2c(c1F)CN(C1CCC(=O)NC1=O)C2=O (stereo not drawn) [FDAB-163]
- IC50 [1, 3]: > 1000 nM
- inhibition at 1 µM ([2]; NB-4 cells, compound 1 μM, 6 h): < 25%

SMILES: O=C1CCC(N2Cc3c(ccc(CNCc4cc5cc(Cl)ccc5o4)c3F)C2=O)C(=O)N1 (stereo not drawn) [FDAB-165]
- IC50 [1, 3]: 1 to 10 nM
- inhibition at 1 µM ([2]; NB-4 cells, compound 1 μM, 6 h): > 80%

SMILES: O=C1CCC(N2Cc3c(ccc(CNCc4ccc(Oc5ccccc5)cc4)c3F)C2=O)C(=O)N1 (stereo not drawn) [FDAB-166]
- IC50 ([1]; MV4-11, 72 h, read-out: Antiproliferative activity IC50): 1 to 10 nM
- inhibition at 1 µM ([2]; NB-4, 6 h): > 80%

SMILES: CCCc1ccc(CNCc2ccc3c(c2F)CN(C2CCC(=O)NC2=O)C3=O)cc1 (stereo not drawn) [FDAB-167]
- IC50 [1, 3]: 1 to 10 nM
- inhibition at 1 µM ([2]; NB-4 cells, compound 1 μM, 6 h): > 80%

SMILES: O=C1CCC(N2Cc3c(ccc(CNCc4ccc(Cl)cc4)c3F)C2=O)C(=O)N1 (stereo not drawn) [FDAB-168]
- IC50 [1, 3]: 10 to 100 nM
- inhibition at 1 µM ([2]; NB-4 cells, compound 1 μM, 6 h): > 80%

SMILES: O=C(Cc1cc2ccccc2s1)NCc1cc(F)cc2c1CN(C1CCC(=O)NC1=O)C2=O (stereo not drawn) [FDAB-169]
- IC50 [1, 3]: 10 to 100 nM
- inhibition at 1 µM ([2]; NB-4 cells, compound 1 μM, 6 h): 50 to 80%

SMILES: O=C(CCc1cccc2ccccc12)NCc1cc(F)cc2c1CN(C1CCC(=O)NC1=O)C2=O (stereo not drawn) [FDAB-170]
- IC50 [1, 3]: 10 to 100 nM
- inhibition at 1 µM ([2]; NB-4 cells, compound 1 μM, 6 h): > 80%

SMILES: O=C1CCC(N2Cc3c(CNC(=O)C(F)(F)c4ccc(Cl)cc4)cc(F)cc3C2=O)C(=O)N1 (stereo not drawn) [FDAB-171]
- IC50 [1, 3]: 100 to 1000 nM
- inhibition at 1 µM ([2]; NB-4 cells, compound 1 μM, 6 h): < 25%

SMILES: O=C1CCC(N2Cc3cc(CNC(=O)c4ccc(Cl)cc4)ccc3C2=O)C(=O)N1 (stereo not drawn) [reference compound]
- IC50 ([1]; MV4-11, MV-4-11 cells, read-out: IC50 against MV-4-11 cell proliferation): 103 nM
- degradation of GSPT1 protein ([2]; co-incubated for 6 h with NB-4 cells): 65%
